# Assay results: patent US20230107538A1, “CYCLOALKYL-CONTAINING CARBOXYLIC ACIDS AND USES THEREOF” (LIMINAL BIOSCIENCES LIMITED, priority 2019, published 2023)
# pEC50, pIC50: −log10 of the molar value.
# Key:
# Format in all cases: cell-based
# human GPR84 [1] = target: T1, human GPR84 (Homo sapiens, UniProt Q9NQS5); test: GPR84 Gαi BRET biosensor, antagonist mode (125 μmol/L sodium decanoate); details: HEK293 cells, with 125 μmol/L sodium decanoate
# T1 construct: host or cells: HEK293 (transient)
# Text: (§1) Plasmids: The cDNA clones for human GPR40 and GPR84 receptors, human β-arrestin 2, Gαi2, Gβ1, and Gγ2 were obtained from the cDNA Resource Center (www.cdna.org). A plasmid encoding the human GPR120-L (long isoform) cDNA was obtained from R&D Systems. GPR120-S (short isoform) was generated by replacing the BglII-BsgI fragment from GPR120-L by a gBlock gene fragment (Integrated DNA Technologies, IA) lacking the DNA sequence corresponding to the extra 16 amino acids found in the third intracellular loop of the long form. GFP10 (F64L, S147P, S202F and H231L variant of Aequorea victoria GFP) gBlocks gene fragments (Integrated DNA Technologies) and linker were inserted in frame at the N-terminus of human Gγ2, or at the C-terminus of GPR40 and GPR120. Rluc8 (A55T, C124A, S130A, K136R, A143M, M185V, M253L, and S287L variant of the Renilla luciferase) gBlocks gene fragment (Integrated DNA Technologies) was inserted with linkers in between residues 91 and 92 of Gα2 or at the N-terminus of β-arrestin 2.
# (§2) BRET measurements: a Gαi bioluminescence resonance energy transfer (BRET) biosensor was used to directly monitor GPR84-mediated activation of Gαi. The Gαi biosensor consists of a Rluc8-tagged Gαi2 subunit, a GFP10-tagged Gγ2 subunit, and an untagged Gβ1. Agonist stimulation and ensuing GPR84 activation triggers a physical separation between the RLuc8-Gαi donor and the GFP10-Gγ2 acceptor, resulting in a decrease in BRET signal whose amplitude is correlated to ligand efficacy. A BRET-based assay that allows the monitoring of Rluc8-tagged β-arrestin 2 recruitment to GFP10-tagged GPR40 or GFP10-tagged GPR120 was used to assess GPR40 or GPR120 activation. Transiently transfected HEK293 cells were seeded in 96-well white clear bottom Costar microplates (Fisher Scientific) coated with poly-D-lysine (Sigma-Aldrich) and left in culture for 24 hours. Cells were washed once with Tyrode's buffer (140 mmol/L NaCl, 1 mmol/L CaCl2, 2.7 mmol/L KCl, 0.49 mmol/L MgCl2, 0.37 mmol/L NaH2PO4, 5.6 mmol/L glucose, 12 mmol/L NaHCO3, and 25 mmol/L HEPES, pH 7.5) and the Rluc8 substrate coelenterazine 400A (Prolume, Lakeside, Ariz.) added at a final concentration of 5 μmol/L in Tyrode's buffer. Ligands were incubated with cells at room temperature for 5 minutes (G protein) or 25 minutes (β-arrestin) before reading BRET signal. In GPR84 antagonist mode, cells were treated with 125 μmol/L of the GPR84 agonist sodium decanoate in combination with test compounds. BRET readings were collected using an Infinite M1000 microplate reader (Tecan, Morrisville, N.C.). BRET^2 readings between Rluc8 and GFP10 were collected by sequential integration of the signals detected in the 370 to 450 nm (Rluc8) and 510 to 540 nm (GFP10) windows. The BRET signal was calculated as the ratio of light emitted by acceptor (GFP10) over the light emitted by donor (Rluc8). The values were corrected to net BRET by subtracting the background BRET signal obtained in cells transfected with Rluc8 constructs alone. Ligand-promoted net BRET values were calculated by subtracting vehicle-induced net BRET from ligand-induced net BRET.
# human GPR40 = target: T2, human GPR40 (Homo sapiens, UniProt O14842); test: GPR40 β-arrestin 2 recruitment BRET, agonist mode; details: HEK293 cells, read-out: GPR40 (agonist mode) EC50 β-arr2
# T2 construct: host or cells: HEK293 (transient)
# Text: as §1, §2
# human GPR120 = target: T3, human GPR120 (Homo sapiens, UniProt Q5NUL3); test: GPR120 β-arrestin 2 recruitment BRET, agonist mode; details: HEK293 cells, read-out: GPR120 (agonist mode) EC50 β-arr2
# T3 sequence (Q5NUL3 1-361): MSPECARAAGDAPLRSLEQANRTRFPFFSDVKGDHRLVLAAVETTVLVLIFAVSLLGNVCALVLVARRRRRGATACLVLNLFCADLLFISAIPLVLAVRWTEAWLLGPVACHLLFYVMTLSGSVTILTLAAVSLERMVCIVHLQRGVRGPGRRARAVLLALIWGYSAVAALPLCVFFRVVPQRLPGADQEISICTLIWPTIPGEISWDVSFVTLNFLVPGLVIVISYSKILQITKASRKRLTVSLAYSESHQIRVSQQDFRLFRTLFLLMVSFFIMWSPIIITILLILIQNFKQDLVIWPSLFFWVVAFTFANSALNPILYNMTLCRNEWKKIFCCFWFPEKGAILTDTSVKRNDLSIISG
# Text: as §1, §2
# human GPR84 [2] = target: T1, human GPR84; test: GPR84 Gαi BRET biosensor, agonist activity; details: HEK293 cells
# Text: as §1, §2
# T1 sequence (Q9NQS5 whole entry): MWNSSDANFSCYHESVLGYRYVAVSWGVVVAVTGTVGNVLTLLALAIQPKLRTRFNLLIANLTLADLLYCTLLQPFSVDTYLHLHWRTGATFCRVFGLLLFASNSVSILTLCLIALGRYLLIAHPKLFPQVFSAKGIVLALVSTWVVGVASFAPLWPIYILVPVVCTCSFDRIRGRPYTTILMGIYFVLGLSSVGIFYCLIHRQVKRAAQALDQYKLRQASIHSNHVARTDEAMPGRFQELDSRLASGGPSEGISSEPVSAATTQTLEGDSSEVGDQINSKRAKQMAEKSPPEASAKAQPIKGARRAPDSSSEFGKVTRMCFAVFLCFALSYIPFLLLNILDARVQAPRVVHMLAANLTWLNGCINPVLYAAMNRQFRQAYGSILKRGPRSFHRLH
# T2 sequence (O14842 whole entry): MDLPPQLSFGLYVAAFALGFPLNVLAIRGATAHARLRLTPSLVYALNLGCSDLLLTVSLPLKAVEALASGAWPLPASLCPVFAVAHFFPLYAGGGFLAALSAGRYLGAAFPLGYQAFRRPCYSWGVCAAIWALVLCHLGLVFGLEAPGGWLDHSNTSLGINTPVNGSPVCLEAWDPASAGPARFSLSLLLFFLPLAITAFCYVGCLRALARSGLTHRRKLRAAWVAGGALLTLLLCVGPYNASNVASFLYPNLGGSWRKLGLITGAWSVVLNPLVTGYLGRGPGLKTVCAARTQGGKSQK
SMILES,pIC50 (human GPR84 [1]),pEC50 (human GPR40),pEC50 (human GPR120),pEC50 (human GPR84 [2])
CCCCCCCC1(CC(=O)O)CC1,< 3.30,3.91,≤ 3.30,–
CCCCCCCC1(CC(=O)O)CCC1,< 4.20,4.68,< 4.20,–
CCCCCCC1CC1CC(=O)O (centres unmarked),–,3.77,3.57,> 4.80
CCCCCC=C1CC(C(=O)O)C1 (centres unmarked),3.88,3.60,< 3.30,–
CC1(C)CC1CCCCC/C=C/C(=O)O (centres unmarked),–,4.66,4.21,5.22
CCCCCCC1CC1C(=O)C(=O)O (centres unmarked),–,3.49,< 3.30,4.43
CCCCCC1C(CCC(=O)O)C1(C)C (centres unmarked),< 4.20,4.57,< 4.20,–
CCCCCC1CC/C1=C/C(=O)O (centres unmarked),3.74,3.68,3.51,–
CCCCCCC1C(CCC(=O)O)C1(C)C (centres unmarked),5.05,5.00,< 4.51,–
[2H]C1([2H])C(CCCCCCC)C1CC(=O)[O-].[Na+] (centres unmarked),–,3.83,3.52,4.64
CCCCCC1CCC1CC(=O)O (centres unmarked),3.76,4.08,< 3.30,–
CCCCCC1CC(CC(=O)O)C1 (centres unmarked),–,4.06,< 3.30,4.46
CCCCCCC1C(CC(=O)O)C1(C)C (centres unmarked) [drawing 302],–,< 4.20,< 4.20,–
CCCCC[C@H]1CCC[C@@H](CC(=O)O)C1,4.25,4.92,3.42,–
CCCCCCC1OC1CC(=O)O (centres unmarked),–,< 3.30,< 3.30,3.94
CCCC[C@H]1CC[C@H](CCC(=O)O)CC1,4.66,4.68,4.66,–
